Experimental data published in article PMC2866172 (Journal of medicinal chemistry, 2010).

What was measured:
[1] = Brain PET imaging in anesthetized baboons; conditions: for Estimated concentration in whole brain, C30min / Concentration in whole brain, C30min: 30 min; for Estimated concentration in whole brain, C30min / Estimated concentration in whole brain, C60min / Estimated concentration in whole brain, C90min: signal assumed intact drug; for Estimated concentration in whole brain, C60min / Concentration in whole brain, C60min: 60 min; for Estimated concentration in whole brain, C90min / Concentration in whole brain, C90min: 90 min; for Concentration in whole brain, C30min / Concentration in whole brain, C60min / Concentration in whole brain, C90min: baboon, i.v.
[2] = Torso PET imaging in anesthetized baboons; conditions: for Calculated drug concentration in heart / Calculated drug concentration in kidney cortex / Calculated drug concentration in kidney medulla / Calculated drug concentration in liver / Calculated drug concentration in lung / Calculated drug concentration in plasma / Calculated drug concentration in gallbladder: 17 kg baboon; for Concentration in heart / Concentration in kidney cortex / Concentration in kidney medulla / Concentration in liver / Concentration in lung / Concentration in plasma / Concentration in gallbladder: baboon, i.v.
[3] = estimated from baboon weight, 20 mg/kg dose
[4] = 15 min, calculated assuming 20 mg/kg dose
[5] = 30 min, calculated assuming 20 mg/kg dose
[6] = 60 min, calculated assuming 20 mg/kg dose
[7] = 90 min, calculated assuming 20 mg/kg dose
[8] = estimated for 17 kg baboon, 10 mg/kg dose
[9] = 15 min, calculated assuming 10 mg/kg dose
[10] = 30 min, calculated assuming 10 mg/kg dose
[11] = 60 min, calculated assuming 10 mg/kg dose
[12] = 90 min, calculated assuming 10 mg/kg dose

For `N[11C](=O)c1cnccn1` [[^11C]PZA], the “Estimated concentration in whole brain, C30min” value [1, 3] was 21.05 µg/mL, the “Estimated concentration in whole brain, C60min” value [1, 3] was 15.74 µg/mL and the “Estimated concentration in whole brain, C90min” value [1, 3] was 13.70 µg/mL. For the same compound, the “Concentration in whole brain, C30min” value [1] was 0.00619 %ID/cc, the “Concentration in whole brain, C60min” value [1] was 0.00463 %ID/cc and the “Concentration in whole brain, C90min” value [1] was 0.00403 %ID/cc. For the same compound, the “Calculated drug concentration in heart” value [2, 4] was “(67.76) µg/ml”, the “Calculated drug concentration in kidney cortex” value [2, 4] was “(20.52) µg/ml” and the “Calculated drug concentration in kidney medulla” value [2, 4] was “(617.02) µg/ml”. For the same compound, the “Calculated drug concentration in liver” value [2, 4] was “(36.14) µg/ml”, the “Calculated drug concentration in lung” value [2, 4] was “(35.03) µg/ml” and the “Calculated drug concentration in plasma” value [2, 4] was “(22.03) µg/ml”. For the same compound, the “Calculated drug concentration in heart” value [2, 5] was “(61.50) µg/ml”, the “Calculated drug concentration in kidney cortex” value [2, 5] was “(16.59) µg/ml” and the “Calculated drug concentration in kidney medulla” value [2, 5] was “(474.39) µg/ml”. The “Calculated drug concentration in liver” value [2, 5] was “(26.96) µg/ml”, the “Calculated drug concentration in lung” value [2, 5] was “(26.48) µg/ml” and the “Calculated drug concentration in plasma” value [2, 5] was “(14.59) µg/ml”. The “Calculated drug concentration in heart” value [2, 6] was “(57.59) µg/ml”, the “Calculated drug concentration in kidney cortex” value [2, 6] was “(12.55) µg/ml” and the “Calculated drug concentration in kidney medulla” value [2, 6] was “(343.00) µg/ml”. The “Calculated drug concentration in liver” value [2, 6] was “(21.98) µg/ml”, the “Calculated drug concentration in lung” value [2, 6] was “(22.17) µg/ml” and the “Calculated drug concentration in plasma” value [2, 6] was “(11.25) µg/ml”. For the same compound, the “Calculated drug concentration in heart” value [2, 7] was “(59.49) µg/ml”, the “Calculated drug concentration in kidney cortex” value [2, 7] was “(9.93) µg/ml” and the “Calculated drug concentration in kidney medulla” value [2, 7] was “(229.44) µg/ml”. The “Calculated drug concentration in liver” value [2, 7] was “(19.19) µg/ml”, the “Calculated drug concentration in lung” value [2, 7] was “(18.58) µg/ml” and the “Calculated drug concentration in plasma” value [2, 7] was “(9.04) µg/ml”. For the same compound, the Concentration in heart ([2]; 15 min after administration) was 0.0199 %ID/cc, the “Concentration in kidney cortex” value ([2]; 15 min after administration) was 0.0060 %ID/cc and the “Concentration in kidney medulla” value ([2]; 15 min after administration) was 0.1815 %ID/cc. The Concentration in liver ([2]; 15 min after administration) was 0.0106 %ID/cc, the Concentration in lung ([2]; 15 min after administration) was 0.0103 %ID/cc and the Concentration in plasma ([2]; 15 min after administration) was 0.00648 %ID/cc. The Concentration in heart ([2]; 30 min after administration) was 0.0181 %ID/cc, the “Concentration in kidney cortex” value ([2]; 30 min after administration) was 0.0049 %ID/cc and the “Concentration in kidney medulla” value ([2]; 30 min after administration) was 0.1395 %ID/cc. It also gave a Concentration in liver ([2]; 30 min after administration) of 0.0079 %ID/cc, a Concentration in lung ([2]; 30 min after administration) of 0.0078 %ID/cc and a Concentration in plasma ([2]; 30 min after administration) of 0.00429 %ID/cc. The Concentration in heart ([2]; 60 min after administration) was 0.0169 %ID/cc, the “Concentration in kidney cortex” value ([2]; 60 min after administration) was 0.0037 %ID/cc and the “Concentration in kidney medulla” value ([2]; 60 min after administration) was 0.1009 %ID/cc. The Concentration in liver ([2]; 60 min after administration) was 0.0065 %ID/cc, the Concentration in lung ([2]; 60 min after administration) was 0.0065 %ID/cc and the Concentration in plasma ([2]; 60 min after administration) was 0.00331 %ID/cc. For the same compound, the Concentration in heart ([2]; 90 min after administration) was 0.0175 %ID/cc, the “Concentration in kidney cortex” value ([2]; 90 min after administration) was 0.0029 %ID/cc and the “Concentration in kidney medulla” value ([2]; 90 min after administration) was 0.0675 %ID/cc. It also gave a Concentration in liver ([2]; 90 min after administration) of 0.0056 %ID/cc, a Concentration in lung ([2]; 90 min after administration) of 0.0055 %ID/cc and a Concentration in plasma ([2]; 90 min after administration) of 0.00266 %ID/cc.
In the case of `CO[C@H]1/C=C/O[C@@]2(C)Oc3c(C)c(O)c4cc(c(/C=N/N5CCN([11CH3])CC5)c(O)c4c3C2=O)NC(=O)/C(C)=C\C=C\C(C)[C@H](O)[C@@H](C)[C@@H](O)[C@@H](C)[C@H](OC(C)=O)[C@@H]1C` (stereo partly drawn) [[^11C]RIF], the “Estimated concentration in whole brain, C30min” value [1, 8] is reported as 1.09 µg/mL, the “Estimated concentration in whole brain, C60min” value [1, 8] is reported as 0.912 µg/mL and the “Estimated concentration in whole brain, C90min” value [1, 8] is reported as 1.21 µg/mL. For the same compound, the “Concentration in whole brain, C30min” value [1] was 0.000642 %ID/cc, the “Concentration in whole brain, C60min” value [1] was 0.000536 %ID/cc and the “Concentration in whole brain, C90min” value [1] was 0.00071 %ID/cc. For the same compound, the “Calculated drug concentration in gallbladder” value [2, 9] was “(121.40) µg/ml”, the “Calculated drug concentration in heart” value [2, 9] was “(7.28) µg/ml” and the “Calculated drug concentration in kidney cortex” value [2, 9] was “(15.79) µg/ml”. For the same compound, the “Calculated drug concentration in kidney medulla” value [2, 9] was “(36.39) µg/ml”, the “Calculated drug concentration in liver” value [2, 9] was “(258.98) µg/ml” and the “Calculated drug concentration in lung” value [2, 9] was “(5.03) µg/ml”. For the same compound, the “Calculated drug concentration in plasma” value [2, 9] was “(2.81) µg/ml”, the “Calculated drug concentration in gallbladder” value [2, 10] was “(586.34) µg/ml” and the “Calculated drug concentration in heart” value [2, 10] was “(5.28) µg/ml”. The “Calculated drug concentration in kidney cortex” value [2, 10] was “(6.34) µg/ml”, the “Calculated drug concentration in kidney medulla” value [2, 10] was “(11.63) µg/ml” and the “Calculated drug concentration in liver” value [2, 10] was “(276.12) µg/ml”. The “Calculated drug concentration in lung” value [2, 10] was “(2.83) µg/ml”, the “Calculated drug concentration in plasma” value [2, 10] was “(1.50) µg/ml” and the “Calculated drug concentration in gallbladder” value [2, 11] was “(983.24) µg/ml”. The “Calculated drug concentration in heart” value [2, 11] was “(1.93) µg/ml”, the “Calculated drug concentration in kidney cortex” value [2, 11] was “(0.43) µg/ml” and the “Calculated drug concentration in kidney medulla” value [2, 11] was “(6.73) µg/ml”. For the same compound, the “Calculated drug concentration in liver” value [2, 11] was “(288.05) µg/ml”, the “Calculated drug concentration in lung” value [2, 11] was “(2.53) µg/ml” and the “Calculated drug concentration in plasma” value [2, 11] was “(1.14) µg/ml”. For the same compound, the “Calculated drug concentration in gallbladder” value [2, 12] was “(1009.99) µg/ml”, the “Calculated drug concentration in heart” value [2, 12] was “(6.80) µg/ml” and the “Calculated drug concentration in kidney cortex” value [2, 12] was “(8.19) µg/ml”. For the same compound, the “Calculated drug concentration in kidney medulla” value [2, 12] was “(9.44) µg/ml”, the “Calculated drug concentration in liver” value [2, 12] was “(299.73) µg/ml” and the “Calculated drug concentration in plasma” value [2, 12] was “(1.16) µg/ml”. For the same compound, the Concentration in gallbladder ([2]; 15 min after administration) was 0.0714 %ID/cc, the Concentration in heart ([2]; 15 min after administration) was 0.0043 %ID/cc and the “Concentration in kidney cortex” value ([2]; 15 min after administration) was 0.0093 %ID/cc. For the same compound, the “Concentration in kidney medulla” value ([2]; 15 min after administration) was 0.0214 %ID/cc, the Concentration in liver ([2]; 15 min after administration) was 0.1523 %ID/cc and the Concentration in lung ([2]; 15 min after administration) was 0.003 %ID/cc. For the same compound, the Concentration in plasma ([2]; 15 min after administration) was 0.00165 %ID/cc, the Concentration in gallbladder ([2]; 30 min after administration) was 0.3449 %ID/cc and the Concentration in heart ([2]; 30 min after administration) was 0.0031 %ID/cc. For the same compound, the “Concentration in kidney cortex” value ([2]; 30 min after administration) was 0.0037 %ID/cc, the “Concentration in kidney medulla” value ([2]; 30 min after administration) was 0.0068 %ID/cc and the Concentration in liver ([2]; 30 min after administration) was 0.1624 %ID/cc. It also gave a Concentration in lung ([2]; 30 min after administration) of 0.0017 %ID/cc, a Concentration in plasma ([2]; 30 min after administration) of 0.00088 %ID/cc and a Concentration in gallbladder ([2]; 60 min after administration) of 0.5784 %ID/cc. The Concentration in heart ([2]; 60 min after administration) was 0.0011 %ID/cc, the “Concentration in kidney cortex” value ([2]; 60 min after administration) was 0.0003 %ID/cc and the “Concentration in kidney medulla” value ([2]; 60 min after administration) was 0.004 %ID/cc. For the same compound, the Concentration in liver ([2]; 60 min after administration) was 0.1694 %ID/cc, the Concentration in lung ([2]; 60 min after administration) was 0.0015 %ID/cc and the Concentration in plasma ([2]; 60 min after administration) was 0.00067 %ID/cc. For the same compound, the Concentration in gallbladder ([2]; 90 min after administration) was 0.5941 %ID/cc, the Concentration in heart ([2]; 90 min after administration) was 0.004 %ID/cc and the “Concentration in kidney cortex” value ([2]; 90 min after administration) was 0.0048 %ID/cc. For the same compound, the “Concentration in kidney medulla” value ([2]; 90 min after administration) was 0.0056 %ID/cc, the Concentration in liver ([2]; 90 min after administration) was 0.1763 %ID/cc and the Concentration in plasma ([2]; 90 min after administration) was 0.00068 %ID/cc.
